From patent US20110014644A1, “METHODS FOR PREDICTING A CANCER PATIENT'S RESPONSE TO ANTIFOLATE CHEMOTHERAPY” (Precision Therapeutics, Inc., priority 2009, published 2011)

Legend:
[1] = system: primary cultures of NSCLC specimens; assay: ChemoFx live cell chemoresponse assay on primary cultures of patient lung cancer specimens; assay type: cell-based, human; details: 65 primary cultures, single agent, 72 hours
Experimental: The ChemoFx™ live cell chemoresponse assay was performed on 65 patient specimens and the cell line A549. The cells were treated with a 10-dose range of pemetrexed for 72 hours before DAPI-nuclear staining and counting. AUC (Area Under Curve) values were calculated and additional statistical analysis was performed on the resulting dose-response curves.
The area under the dose-response curve (AUC) represents the survival fraction of cells in the presence of drug at each of the 10 increasing dose concentrations. There can be certain circumstances when dose-response curves of differing shapes share similar AUCs. Therefore, as a better reflection of sensitivity to drug treatment, an adjusted area under the curve (aAUC) was calculated according to the following formulas. First, local slope (Sd) at each dose point was calculated based on Sd=(CId-1−CId)/unit of dose. Second, slope weight (Wd) at each dose point was calculated based on Wd=1−Sd. Finally, aAUC was computed based on aAUC=Σ Wd CId, where d=1 . . . 10. Mi Z, et al. (2008) Anticancer Res 28: 1733-1740.
Adjusted areas under the curve (aAUC) were calculated for each dose-response curve. The assay results were classified as responsive (R; assay score≦5.34648.0), intermediate responsive (IR; assay score 5.3465-6.5372) or non-responsive (NR; assay score≧6.5373).

[2] = system: non-small cell lung carcinoma (NSCLC); details: second-line treatment in the clinical setting, NSCLC patients (Hanna 2004); cited from earlier work
A549 cells = assay: ChemoFx live cell chemoresponse assay on A549 (wash-before-treatment, folic acid supplementation); assay type: cell-based, human
Experimental: The ChemoFx™ live cell chemoresponse assay was performed on 65 patient specimens and the cell line A549. The cells were treated with a 10-dose range of pemetrexed for 72 hours before DAPI-nuclear staining and counting. AUC (Area Under Curve) values were calculated and additional statistical analysis was performed on the resulting dose-response curves. Folic Acid supplementation experiments were conducted. Pure folic acid was purchased from Sigma Aldrich, filtered, and prepared in a 100× concentration using RPMI media. The concentrate was added to RPMI media so that the final concentration of folic acid ranged between 1.5 mg/L and 500 mg/L. The cell line A549 was plated and treated according to the ChemoFx™ assay in the RPMI media containing increasing concentrations of folic acid. A control was also plated and treated at the same time. In order to determine whether or not removal of excess folic acid from growth media affected the outcome of the chemoresponse assay, a Wash Before Treatment (WBT) step was included. Briefly, A549 cells were plated in 5% BEGM growth media and were cultured to the desired confluence. The growth media was then aspirated and the cells washed with 70 μL of PBS. After removal of the PBS, 70 μL of 5% RPMI+EGF (EGF concentration of 10 ng/mL) treatment media was added to the each treatment well. Following the addition of the treatment media, 30 μL of the treatment media was removed leaving a total volume of 40 μL of treatment media per well. Pemetrexed was then prepared using serial dilutions in the treatment media and was applied to the treatment wells. All aspirations and additions of media and wash solutions was performed by an automated liquid handler to avoid harsh pipetting that might dissociate/disrupt cells.

Compound: Nc1nc2[nH]cc(CCc3ccc(C(=O)N[C@@H](CCC(=O)O)C(=O)O)cc3)c2c(=O)[nH]1 [pemetrexed, Pemetrexed]
- share of primary cultures with intermediate response (IR) ([1]; 2.24 nM to 586 μM, aAUC assay score 5.3465-6.5372): 9.2%
- share of primary cultures non-responsive (NR) ([1]; 2.24 nM to 586 μM, aAUC assay score ≧6.5373): 84.6%
- share of primary cultures that responded (responsive, R) ([1]; ten serial dilutions 2.24 nM to 586 μM, aAUC assay score ≦5.34648.0): 6.2%
- objective response rate (overall population response) [2]: 9.1%
- effect of folic acid on observed activity (A549 cells; A549, RPMI media with folic acid 1.5 mg/L to 500 mg/L, FIG. 3): could be reversed with folic acid treatment
- effect of wash-before-treatment (WBT) protocol on in vitro response (A549 cells; A549, with WBT, 5% BEGM to 5% RPMI+EGF, FIG. 1): significantly improved the in vitro response
- response curve without WBT (A549 cells; A549, without WBT (5% BEGM control)): a typical ChemoFx™ response curve was not obtained
- sensitivity of A549 to treatment (A549 cells; A549 cultured in 5% BEGM, treated in 5% RPMI+EGF, FIG. 1): good positive control for sensitivity
